Entries after “also recorded” stand apart in the source; their conditions may differ. Square brackets hold non-standard residues; d marks the D form. Ends that are not written are not given here. Peptide text beside a SMILES is read from it. Phe(4-B(OH)2) = N[C@@H](Cc1ccc(B(O)O)cc1)C(=O)O; Dopa = N[C@@H](Cc1ccc(O)c(O)c1)C(=O)O
B1: OSCSO (peptide)
chain: [Dopa]SCS[Dopa]

Columns and labels:
BSCSB = assay: Isothermal titration calorimetry (ITC), BSCSB titrated into the ligand peptide; type: binding; settings: for binding in ITC at pH 7.4 (ligand comparison): pH 7.4, 25 °C, BSCSB titrated to YSCSY or OSCSO as ligand
Procedure: The pH-reversible interactions of boronic acid and catechol groups, the formation of disulfides, as well as the responsiveness of the bis-peptide system were further investigated under different conditions (Figure 5). First, the boronic acid condensation with the complementary catechol and the thermodynamic properties were assessed under pH conditions that are relevant to physiological conditions, i.e., pH = 7.4 typical for extracellular environment of normal tissues and pH 6 for acidic intracellular compartments such as endosomes.[28] Equimolar concentrations of the reacting tags were applied to investigate the thermodynamic parameters associated with the formation of the heterodimer. DyLight488 labeled peptide (DL488-BSCSB) was synthesized by connecting the commercially available NHS-ester of this dye to the N-terminus of the BSCSB sequence to enable a microscale thermophoresis (MST) experiment, in which the dissociation constant could be determined. MST measurements were performed by titrating DL488-BSCSB (2 μM) against the complementary OSCSO peptide binding partner (76 nM to 5 mM). […] Such an improvement could be explained by the lack of electrostatic repulsion due to the presence of the electroneutral serine (at physiological pH) in the sequence. […] To assess the binding constant at physiological pH and to understand the type of complex formed, isothermal titration calorimetry (ITC) measurements were performed. The raw data were plotted as heat rate versus time at pH = 6 and 7.4. (SI, Figure S16). […]
Additionally the same amount of BSCSB solution was titrated into pure water to determine the heat of dilution for reference. As a control another sequence was checked for binding with L-tyrosines instead of L-DOPA and measured as before mentioned. […]
Figure S 16: ITC titrations performed at a) pH = 7.4 and b) 6.0, showing the heat rate signals after base line correction. No heat change different from the dilution (blank) was detected for pH = 6.0. […]

A549 cells = assay: Cell uptake by confocal microscopy; type: cell-based, human; settings: 24 h, 37 °C
Procedure: For cell uptake studies, A549 cell line was selected, which is a model of alveolar Type II pulmonary epithelium.[35] The uptake was performed under two conditions to test the robustness of the resultant conjugate, which represents the extracellular conditions found in different stages of cancer progression.[36] Internalization of the conjugate was first studied in standard cell culture media (∼ neutral pH). A solution of DL488 ≃ TAT was applied directly to A549 cells to a final concentration of 10 μM, without any further workup or further purification. As additional controls, (1) a conjugate DL488-BSCSB ≃ OSCSO incubated with free TAT sequence and (2) a conjugate without the disulfide bridge (DL488-BSGSB) ∼ (TAT-OSCSO) where cysteine was replaced by glycine in one of the sequences were both applied at 10 μM (Figure 7a). […] Next, we proceeded to verify that the peptide tags are robust even under metastatic tumor-like microenvironment, where acidosis is a hallmark. Consequently, the low extracellular pH can result in a more invasive phenotype (Figure 7c), which is more challenging to treat.[28] First, A549 cancer cells were subjected to acute acidification to derive cells cultured at pH 6.4.[37]−[39] Thereafter DL488 ≃ TAT and controls 1 and 2 were applied at 10 μM for 24 h. […] Therefore, the linker chemistry can potentially be adopted for more invasive cancer phenotypes.
Sample preparation protocol. 20 µL of 2 mM solutions of DL488-BSCSB and either OSCSO, OSCSO and TAT or TAT-OSCSO were mixed together to obtain 40 µL of 1 mM solution of preassembled conjugate (in 10 mM phosphate buffer pH = 8 with 10% DMSO). The conjugate was subsequently oxidized by addition of 1 µL 75 mM potassium peroxymonosulfate (Oxone®) solution in 100 mM PB, pH = 7.4 to obtain its final concentration as 1.8 mM. Prepared conjugate was used directly for the cell studies without […]
Cell culture. The human cell line A549 from adenocarcinomic lung tissue (American Type Culture Collection, Manassas, VA, US) was cultured in Dulbecco's modified Eagle medium (DMEM 4.5 g/L D-Glucose, L-Glutamine; Gibco by ThermoFisher Scientific, Germany) supplemented with 10% fetal calf serum (FCS; Sigma Aldrich, Germany) and 1% Penicillin/Streptomycin (Invitrogen, Germany) at a humified atmosphere with 37 °C and 5% CO2 . Fresh culture medium was replaced every two days and cells were subcultured after reaching 80% confluence.
Evaluation of cell uptake. A549 cells were detached by TrypLE Select (Gibco by ThermoFisher Scientific, Germany) and centrifuged 5 min at 1000 rpm. […]

[1] = quoted as stand-in for the pKa of 4-borono-phenylalanine; cited from earlier work
[2] = biological target: T1, DyLight488 labeled peptide DL488-BSCSB; assay: MST; DL488-BSCSB (2 μM) held constant, OSCSO titrated (76 nM to 5 mM); 100 mM phosphate buffer pH 7.4 in the presence of TCEP; the legend of Figure 5b calls it a fluorescence quenching assay; settings: both partners purified
T1 chain: DyLight488-[Phe(4-B(OH)2)]SCS[Phe(4-B(OH)2)]

[3] = biological target: T1, DyLight488 labeled peptide DL488-BSCSB; assay: MST; DL488-BSCSB (2 μM) held constant, OSCSO titrated (76 nM to 5 mM); 100 mM phosphate buffer pH 6.0 in the presence of TCEP; the legend of Figure 5b calls it a fluorescence quenching assay; settings: both partners purified
OSCSO = biological target: B1; assay: ITC; BSCSB titrated to OSCSO (2Red); 100 mM phosphate buffer pH 7.4; independent binding model fit; settings: both partners purified
[4] = standard cell culture media (∼ neutral pH), 10 μM, triplicates

Molecule: YSCSY
- binding in ITC at pH 7.4 (ligand comparison) (BSCSB): No binding

Molecule: NC(=O)[C@H](Cc1ccc(O)c(O)c1)NC(=O)[C@H](CO)NC(=O)[C@H](CS)NC(=O)[C@H](CO)NC(=O)[C@@H](N)Cc1ccc(O)c(O)c1 [OSCSO] (H-[Dopa]SCS[Dopa]-NH2)
- binding in ITC at pH 6 (BSCSB; pH 6.0, 100 mM phosphate buffer, 25 °C, BSCSB titrated into OSCSO, compared with heat of dilution): No heat change different from the dilution; also recorded: lack of binding
- binding in ITC at pH 7.4 (ligand comparison) (BSCSB): significant heat change

Molecule: DL488-BSCSB≃OSCSO+TAT (bicyclic or more) [control 1]
- uptake in A549 cells (A549 cells; [4]): no uptake was observed

Molecule: Cc1ccc(B(O)O)cc1 [4-methylphenylboronic acid]
- pKa [1]: ~8.9

Molecule: DL488-BSCSB≃OSCSO-TAT (bicyclic or more) [DL488 ≃ TAT, dual responsive conjugate of TAT-OSCSO and DL488-BSCSB after addition of Oxone]
- uptake in A549 cells (A549 cells; [4]): significant uptake

Molecule: (DL488-BSGSB) ∼ (TAT-OSCSO) (sidechain bridge or staple) [control 2]
- uptake in A549 cells (A549 cells; acidic media pH 6.4, 10 μM, no CO2, triplicates): not internalized
- uptake in A549 cells (A549 cells; [4]): no uptake was observed

Molecule: B1
- Kd [2]: 1800 ± 400 nM
- Kd [3]: > 440000 nM

Molecule: [Phe(4-B(OH)2)]SCS[Phe(4-B(OH)2)] [BSCSB]
- Kd (OSCSO): 1800 ± 400 nM
- stoichiometry N (OSCSO): 1.2 ± 0.1
